“And” between values parts separate entries of the source, which are not always exact repeats. Equal values may be shown once. “Also recorded” adds a separate entry of the source.
Columns and labels:
fundic mucosa = assay: Immunohistochemistry / immunofluorescence of stomachs of DMP-777-treated mice; type: in vivo, gastrin-deficient mice
Description: Excised stomachs from Gastrin-deficient mice treated with DMP-777 or untreated controls embedded in paraffin were used for immunohistochemistry analysis Stomachs from C57BL/6 wild-type mice and sections from H. felis-infected C57BL/6 mice (infected for 6 months) were also examined with staining as a comparison. For immunohistochemistry, except for Mist1 staining, deparaffinized sections were pretreated with antigen retrieval using Target Retrieval solution (DakoCytomation, Glostrup, Denmark) at 120° C. for 15 minutes, followed by immediate cooling using iced water. For immunohistochemistry of Mist1, Trilogy antigen retrieval solution (Cell Marque, Austin. Tex.) was used during the antigen retrieval procedure. Sections were treated with 2% blocking serum and then incubated with the primary antibody overnight at 4° C. Immunostaining was performed with the following primary antibodies; murine monoclonal immunoglobulin M (IgM) anti-trefoil factor family 2 (TFF2, a gift from Sir Nicholas Wright, Cancer Research UK; 1:1000); rabbit anti-Mist1 (1:2000); murine monoclonal anti-H/K-ATPase (a gift from Dr. Adam J. Smolka, Medical University of South Carolina; 1:100,000); rabbit anti-HE4 (1:2000); rabbit anti-intrinsic factor (a gift from Dr. David Alpers, Washington University, St. Louis; 1:2000);, goat anti-Intrinsic factor (1:2000): rabbit anti-MCM3 (1:2000); rat monoclonal anti-Ki67 (TEC-3, DakoCytomation; 1:200).
For immunofluorescence analysis, Cy3-goat anti-mouse IgM antibody, Cy5-goat anti-mouse IgG antibody (Jackson ImmunoResearch, West Grove, Pa.) and Alexa488 goat anti-rabbit IgG (Invitrogen, Carlsbad, Calif.) were used. PROLONG® Gold Antifade Reagent with DAPI (Invitrogen) was used for nuclear counterstain and mounting medium.
For immunohistochemistry with detection with diaminobenzidine, the sections were incubated with biotinylated secondary antibody followed by horseradish peroxidase-conjugated streptavidin. Chromogen was developed with diaminobenzidine (Biogenex, San Ramon, Calif.). For immunohistochemistry with alkaline-phosphatase detection, the sections were incubated with biotinylated secondary antibody followed by alkaline-phosphatase-conjugated avidin-biotin complex. Chromogen was developed with VECTOR® Red Substrate (Vector Laboratories, Burlingame, Calif.). All sections were counterstained with Gill's hematoxylin.
Sections were viewed and photographed on Zeiss AXIOPHOT® microscope equipped with an AXIOVISION® digital imaging system (Zeiss) or FLUOVIEW® FV1000 confocal microscope system (Olympus).

[1] = system: chief cells / SPEM cells at the bases of fundic glands; assay: Electron microscopy of gastric fundic region; type: in vivo; settings: gastrin-deficient mice treated for 3 days with DMP-777
Protocol: Fresh specimens from the gastric fundic region of untreated controls and 3-day DMP-777 treated gastrin-deficient mice fixed for 2.5 hour on ice in 2.5% glutaraldehyde, 0.1 M Cacodytate Buffer in PBS. The samples were fixed overnight at 4° C. in 1% osmium tetroxide (OSO4) and 0.1M Cacodylate Buffer. Subsequently, the samples were subjected to an ethanol dehydration series and embedded in Spurrs resin. 50˜100 nm thin sections were cut and collected on 200-mesh, formvar-coated copper grids. After drying overnight, the grids were contrast stained with 2% depleted Uranyl Acetate (UA) and then stained with saturated lead citrate. Samples were examined on a Philips CM12 Electron Microscope.

parietal cells = settings: cited from earlier work

CCC[C@@H](NC(=O)N1C(=O)C(CC)(CC)[C@@H]1Oc1ccc(C(=O)N2CCN(C)CC2)cc1)c1ccc2c(c1)OCO2 [DMP-777]
quantification of Ki-67 staining (FIG. 6F) (fundic mucosa; 1 to 14 days of treatment, *p<0.05 at 7 days): smaller increase, which was only significant at 7 days of treatment
HE4 expression in SPEM cells at the bases of fundic glands (immunostaining) (fundic mucosa; DMP-777 treated gastrin-deficient mice): prominent up-regulation
TACC3 expression in cells at the bases of gastric glands (fundic mucosa; after only one day of DMP-777 treatment): TACC3 expression was evident
HE4 immunoreactivity in SPEM (fundic mucosa; after only one day of treatment): markedly increased
quantification of MCM3 staining (FIG. 6F) (fundic mucosa; days 3-14 of treatment, **p<0.01, ***p<0.001): significant increase
TFF2 and intrinsic factor staining in cells at the bases of fundic glands (fundic mucosa; gastrin deficient mice treated for 3 days with DMP-777): SPEM cells expressing two separate populations of TFF2 and intrinsic factor staining granules were present
Ki67 positive cell numbers (fundic mucosa; gastrin-deficient mice after DMP-777 treatment): only a small increase
number of Mist1 immunoreactive cells at the bases of glands (fundic mucosa; gastrin-deficient mice treated with DMP-777 for three days): decreased
number of MCM3 positive cells (fundic mucosa; gastrin-deficient mice, after 1 day of DMP-777, remained elevated through 14 days): increased
TACC3 expression in SPEM cells at the bases of fundic glands (fundic mucosa; treatment with DMP-777 for 3 days): strongly up-regulated
granule morphology of SPEM cells at the bases of fundic glands (electron microscopy) [1]: heterogeneous set of granule morphologies
morphological evidence of apoptosis (electron microscopy) [1]: no morphological evidence of apoptosis
inflammatory infiltrate (parietal cells; DMP-777 treated animals): absence of significant inflammatory infiltrate
induction of SPEM in gastrin-deficient (knockout) mice (parietal cells; gastrin knockout mice): rapid induction of metaplasia after only one day of DMP-777 treatment; also recorded: develop SPEM after only one dose of DMP-777; also recorded: develop SPEM after only a single dose of DMP-777
surface cell (foveolar) hyperplasia in response to DMP-777 (parietal cells; gastrin knockout mice): do not develop surface cell hyperplasia
cells expressing both intrinsic factor and TFF2 (dual expressing cells) (parietal cells; gastrin-deficient mice, after only one day of treatment): rapid increase in dual expressing cells
loss of parietal cells (parietal cells; mice or rats, high doses of oral DMP-777 (>200 mg/kg/d), three days of administration): rapid loss of parietal cells
time of oxyntic atrophy until SPEM develops in the fundus (parietal cells; mice or rats, oral DMP-777 >200 mg/kg/d): 7 to 10 days
dysplastic lesions (parietal cells; mice or rats, prolonged administration of drug for up to a year): no dysplastic lesions are ever observed
time to loss of acid-secreting parietal cells (parietal cells; rodents): within one to three days
days of treatment required for SPEM in wild type C57BL/6 mice (parietal cells; wild type C57BL/6 mice): 7 to 10 days and 10 to 14 days

From patent publication US7811778B2, “Methods of screening for gastrointestinal cancer” (Vanderbilt University, priority 2006, dated 2010)
